Test results from patent publication US9233166B2, “Supramolecular functionalization of graphitic nanoparticles for drug delivery” (The Board of Trustees of the Leland Stanford Junior …, priority 2007, dated 2016).
Several values for one entry are separate records, joined by “and”; a condition that tells them apart may be missing. Equal entries are not always repeated. Where two headings read alike, the source gives them in different places.

Assays:
Raji B-cells [1] = assay: MTS cell viability assay, Raji cells (NGO-PEG-Rituxan/DOX); format: cell-based; conditions: 2 uM and 10 uM DOX, vs free DOX, NGO-PEG/DOX and unconjugated mixture
Method: Doxorubicin (DOX) loading onto NGO-PEG (and NGO-PEG-Rituxan) was done by simply mixing 0.5 mM of DOX with the NGO-PEG solution (˜0.2 mg/ml) at pH 8 overnight. Unbound excess DOX was removed by filtration through a 100 kDa filter and repeated rinse. The formed NGO-PEG/DOX complexes were re-suspended and stored at 4° C. Concentration of DOX loaded onto NGO-PEG was measured by the absorbance peak at 490 nm (characteristic of DOX, after subtracting the absorbance of NGO-PEG at that wavelength) with a molar extinction coefficient of 1.05×104 M·cm-1. Both Raji and CEM cells were incubated with free DOX, NGO-PEG/DOX, NGO-PEG/DOX+Rituxan (unconjugated) and NGO-PEG-Ri/DOX at DOX concentrations of 2 μM or 10 μM for 2 hours and washed by PBS twice before transferring into fresh cell medium. After another 48 h incubation, Cell viability was measured by the MTS assay with CellTiter96 kit (Promega).
For DOX loaded onto NGO-PEG-rituximab, we incubated the conjugates with Raji cells at 2 uM and 10 uM DOX concentrations.

[2] = system: HCT-116 colon cancer cell line; assay: MTS cell toxicity assay, HCT-116; format: cell-based; conditions: Homo sapiens
Method: (§1) HCT-116 colon cancer cell line, OVCAR-3 ovarian cancer cell line, U87MG glioma cell line and MDA-MB-435 breast cancer cell line were all obtained from American Type Culture Collect (ATCC) and cultured in the recommended conditions. […] After incubation for 72 hours, relative cell viability was measured by standard MTS assay using a CellTiter 96 kit (promega). For NGO-PEG toxicity test, cell medium containing NGO-PEG was changed to fresh medium at 72 h before cell viability test to avoid the dark color of NGO-PEG at high concentrations, which interferes the absorbance reading in MTS assay.

[3] = system: OVCAR-3 ovarian cancer cell line; assay: MTS cell toxicity assay, OVCAR-3; format: cell-based; conditions: Homo sapiens, 72 h drug incubation
Method: as §1

U87MG glioma cell line = assay: MTS cell toxicity assay, U87MG; format: cell-based; conditions: Homo sapiens, U-87 MG, 72 h drug incubation
Method: as §1

[4] = system: MDA-MB-435 breast cancer cell line; assay: MTS cell toxicity assay, MDA-MB-435; format: cell-based; conditions: Homo sapiens, MDA-MD-435 (breast), 72 h drug incubation
Method: as §1

[5] = Water solubility of NGO-PEG-SN38; format: physicochemical; conditions: in terms of SN38
Excerpt: The existence of aromatic conjugated domains on GO has been shown by NMR previously (Lerf, A.; He, H. Y.; Forster, M.; Klinowski, J., J. Phys. Chem. B, 1998, 102, 4477-4482).

4T1 tumors = assay: In vivo treatment of 4T1 murine breast cancer model; design: species or system Balb/c mice; conditions: PTX 5 mg/kg every 6 days
Method: Female Balb/c mice with implanted 4T1 tumors were treated with the compositions shown in the graphs at the same PTX dose (5 mg/kg, every 6 days). […] No obvious side effects were seen. No mouse in the treatment group died, and no average drop in body weigh was seen (FIG. 19). The tumor growth curves were obtained with 5 mice in each group to get the average tumor volumes and standard deviations.
All animal experiments were performed under a protocol approved by Stanford's Administrative Panel on Laboratory Animal Care (APLAC). The 4T1 tumor models were generated by subcutaneous injection of 2×10^6 cells in 50 μl PBS into the right shoulder of female Balb/c mice. The mice were used for treatment when the tumor volume reached 50-100 mm^3 (˜6 days after tumor inoculation). […] The tumor sizes were measured by a caliper every the other day and calculated as the volume=(tumor length)×(tumor width)^2/2. Relative tumor volumes (FIG. 24) were calculated as V/V0 (V0 was the tumor volume when the treatment was initiated).
The mice were observed daily for clinical symptoms and the tumor volume was measured by a digital caliper every other day.

MCF-7 cells = assay: MTS cell viability assay, MCF-7 cells (SWNT-DOX formulations); format: cell-based; conditions: integrin αvβ3 negative
Method: MCF-7 breast cancer cells and U87MG human glioblastoma cancer cells (both from American Type Culture Collection, ATCC) were cultured under standard conditions. Cell viability after various treatments was measured by the MTS assay with CellTiter96 kit (Promega).

[6] = Absorbance of free doxorubicin on heating; format: physicochemical; conditions: after 24 hours
Method: The diameter distributions of two types of SWNTs were obtained by AFM topographic height measurements of ˜100 PL-PEG functionalized nanotubes in each material, after depositing them on Si substrates from solutions (FIG. 12). Both Laser PL-SWNT-DOX and Hipco PL-SWNT-DOX (DOX loaded at pH=9) were incubated in PBS and kept at various temperatures (20° C., 40° C., 60° C., 80° C.). Released doxorubicin was removed at different time points and the retained doxorubicin was measured by UV-VIS-NIR to get temperature dependent releasing curves (FIGS. 13A and 13B). […] This was corrected in obtaining our release curves. The half-lives (t1/2) of doxorubicin on PEGylated SWNTs at various temperatures were obtained by fitting the releasing curves to exponential decays. We then used Arrhenius fits of 1/t1/2(T)=A×exp(−EB/kBT) where A is a constant for extracting binding energy EB of DOX on the PEGylated Hipco and laser-ablation nanotubes.

[7] = system: Raji B-cell lymphoma tumors; assay: In vivo treatment of Raji tumor bearing SCID mice
Method: Each SCID mouse was subcutaneously injected with 10 million Raji cells on its back. The treatment was initiated when the tumors reached sizes of ˜400 mm^3 (2-3 weeks after tumor inoculation). The tumor bearing mice were i.v. injected with different formulations of DOX including free DOX, SWNT-DOX and Doxil at 5 mg/kg of normalized DOX dose (or 10 mg/kg for SWNT-DOX) as well as related controls weekly. The tumor sizes were measured by a caliper three times a week and calculated as the volume=(tumor length)×(tumor width)^2/2. Relative tumor volumes were calculated as V/V0 (V0 was the tumor volume when the treatment was initiated). Mice were weighed with the relative body weights normalized to their initial weights.
Raji tumor bearing SCID mice were treated with different formulations of DOX at the weekly by i.v. injection. Plain SWNT and separated injections of plain SWNT plus free DOX were used as the controls. The tumor sizes were normalized to their initial size when the treatment was started (FIG. 26A-D).

[8] = mouse, in vivo, iv
Method: Blood circulation was measured by drawing ˜15 μl blood from the tail vein of Raji tumor bearing SCID mice post injection of free DOX or SWNT-DOX. The blood samples were dissolved in a lysis buffer 1 (1% SDS, 1% Triton X-100, 40 mM Tris Acetate, 10 mM EDTA, 10 mM DTT) with brief sonication. Concentration of SWNTs in the blood was measured by a Raman method. […] In brief, DOX was extracted by incubating blood samples in 1 ml of 0.75 M HCl in isopropanol (IPA) at −20° C. overnight. After centrifuge at 24,000 g for 15 minutes, the supernatant was taken for fluorescence measurement using a fluorolog-3 fluorometer. A standard calibration curve with obtained by measuring fluorescence of extraction solutions with known DOX concentrations. DOX loaded on SWNTs can be completely pulled from nanotubes by the extraction solution with ˜100% recover of fluorescence (DOX fluorescence is quenched once loaded on nanotubes).
Blood circulation data were plotted as the blood DOX or SWNT levels (unit: % ID/g) against time p.i. […]
We injected free DOX or SWNT-DOX to Raji tumor bearing SCID mice by intravenous (i.v.) injection via tail veins. Blood was drawn at different time points post injection (p.i.) with DOX concentrations measured by fluorescence spectra.

Raji B-cells [9] = assay: NIR photoluminescence imaging of cell binding; format: cell-based; conditions: 4° C., Raji B-cells vs CEM T-cells
Method: We covalently conjugated a B-cell specific antibody, Rituxan® rituximab (anti-CD20) to NGO-PEG (NGO-PEG-rituximab) to selectively recognize and bind to B cell lymphoma cells. We incubated B-cells and T-cells in solutions of NGO-PEG-rituximab conjugates at 4° C. to allow the conjugates to interact with the cell surface but block internalization via endocytosis. The cells were then washed and imaged by detecting NIR photoluminescence from 1100 to 2200 nm using an InGaAs detector under 658 nm excitation (laser spot size ˜1 μm). […] This confirmed selective NGO-PEG-Ab binding to B-cells over T cells. […] Nevertheless, the fluorescence quantum yield (QY) in the NIR-IR region appeared low.
Thiolated Rituxan® was conjugated to the amine groups on NGO-PEG via a sulfo-SMCC linker (Pierce Inc.). […] All NIR fluorescence images were taken using an inverted NIR fluorescence microscope in confocal mode. […] The collected light went through a 900 nm long pass filter (Omega) and a 1100 nm long pass filter (ThorLabs) to block reflected excitation and reduce background fluorescence from the sample holder. […] Background fluorescence from the sample holder (˜160 counts) was subtracted to give relevant statistics about the effectiveness of NGO-PEG binding.

[10] = HCT-116 (colon), 72 h drug incubation, read-out: IC50 values

## NGO-PEG-Rituxan/DOX
Raji B-cells [1]
  DOX delivery and cell killing: Much enhanced DOX delivery and cell killing

## CCc1c2c(nc3ccc(O)cc13)-c1cc3c(c(=O)n1C2)COC(=O)[C@]3(O)CC [SN38, 7-ethyl-10-hydroxycamptothecin]
[2]; [10]
  IC50: 0.015 µM
[3]
  IC50: 0.0003 µM
U87MG glioma cell line
  IC50: 0.067 µM
[4]
  IC50: 0.003 µM
[5]
  water solubility: very insoluble in water

## CCc1c2c(nc3ccc(OC(=O)N4CCC(N5CCCCC5)CC4)cc13)-c1cc3c(c(=O)n1C2)COC(=O)[C@]3(O)CC [CPT-11, irinotecan]
[2]; HCT-116, 72 h, read-out: 50% growth inhibition concentration (IC50)
  IC50: ~10 µM
[2]; [10]
  IC50: 11 µM
[3]
  IC50: 3 µM
U87MG glioma cell line
  IC50: > 20 µM
[4]
  IC50: 6 µM

## CC(=O)O[C@H]1C(=O)[C@@]2(C)[C@H]([C@H](OC(=O)c3ccccc3)[C@]3(O)C[C@H](OC(=O)[C@H](O)[C@@H](NC(=O)c4ccccc4)c4ccccc4)C(C)=C1C3(C)C)[C@]1(OC(C)=O)CO[C@@H]1C[C@@H]2O [free PTX, paclitaxel]
4T1 tumors
  lung metastasis: obvious lung metastasis was observed

## COc1cccc2c1C(=O)c1c(O)c3c(c(O)c1C2=O)C[C@@](O)(C(=O)CO)C[C@@H]3O[C@H]1C[C@H](N)[C@H](O)[C@H](C)O1 [free DOX, doxorubicin]
MCF-7 cells
  toxicity (concentration dependent survival): higher toxicity than both PL-SWNT-DOX and PL-SWNT-RGD-DOX
[6]; 60° C.
  drop of absorbance on heating: ~30%
[6]; 80° C.
  drop of absorbance on heating: ~50%
[7]; 5 mg/kg
  mice death: 2 out of 10 and 2
[7]; 5 mg/kg DOX weekly i.v., in two weeks
  tumor growth (folds of initial size): 2.90±0.19 folds
[7]; 5 mg/kg, within two weeks
  body weight loss: ~20%
[7]; 10 mg/kg
  mouse death and body weight drop: all the tested mice died within 2 weeks
[8]
  DOX circulation half-life: 12.6 min
  total area under curve (AUC0-∞): 5300 ng·h/mL

## NGO-PEG-rituximab
Raji B-cells [9]
  cell surface binding (NIR photoluminescence): selectively on positive Raji B-cells surface and not on negative CEM T-cells
